Test results as given in EP3666760B1, “5-THIOISTIDINE COMPOUNDS AND METHYLATED DERIVATIVES (OVOTHIOLS) AS INHIBITORS OF GAMMA-GLUTAMYL-TRANSPEPTIDASE (GGT) ACTIVITY” (Stazione Zoologica "Anton Dohrn", priority 2018, dated 2020).
Read-outs that look alike come from different tables or passages of the source.

Columns and labels:
[1] = biological target: GGT (Equus caballus, UniProt A0A9L0SYL6); experiment: Kinetics of GGT inhibition (Ki) varying donor GpNA or acceptor Gly-Gly concentration; type: biochemical, horse; settings: for type of inhibition: both with respect to the acceptor substrate and to the donor substrate, Vmax decreases, km almost unchanged; for Ki: average of Michaelis-Menten and Lineweaver-Burk
Method: (§1) GGT activity assay: GGT activity was determined by a colorimetric test. The analysis buffer contains 100 mM Tris-HCl pH 7.8 or PBS 1X pH 7.4. Each reaction contains 1 mM of γ-glutamyl-para-nitroanilide (GpNA) as a donor substrate and 40 mM glycyl-glycine (glygly) as an acceptor substrate. The enzyme GGT purified from murine tissues or human cells, or from equine sources (purchased from Sigma) was added at the end to start the test. The formation of the product, p-nitroaniline, was continuously monitored at room temperature at 405 nm using a Bio-Rad 680 microplate reader with the Microplate Manager 5.2 software (Bio-Rad). One unit of GGT activity was defined as the amount of GGT that released 1 µmοl of p-nitroaniline/min at room temperature. The molecules tested as inhibitors, Erg, DON and DTT were purchased by Sigma Aldrich.
(§2) The enzymatic activity assays were carried out using the Tate & Meister spectrophotometric assay, using the γ-glutamyl-para-nitroanilide chromogen (GpNA) as a donor substrate, glycyl-glycine as a substrate and a purified commercial GGT solution as a biocatalyst from horse (EqGGT) with a high % identity with the human one. These assays were also performed in the presence of GGT isolated directly from the hepatic mouse tissues and/or from human cell cultures (hGGT). The inhibition of EqGGT and hGGT by 5-thio and ovothiol A was compared with that of Erg and the GGT DON commercial inhibitor. […] Instead, the already known GGT inhibitors are toxic at much lower concentrations.
The inhibition constants Ki and GGT inactivation rate for 5-thio and ovothiol A were determined by varying both the concentrations of the GpNA donor substrate and maintaining the Gly-Gly acceptor concentrations fixed and vice versa, as shown in Figure 2. Ki (dissociation constant related to E) was calculated as a function of Vmax. For all the compounds the Vmax decreases as the concentration of inhibitor increases, while the km remains almost unchanged.

[2] = biological target: EqGGT (Equus caballus, UniProt A0A9L0SYL6); experiment: GGT activity assay (colorimetric, GpNA donor / glycyl-glycine acceptor), IC50; type: biochemical, horse
Method: as §1, §2

[3] = tested on: HEK293; experiment: Cell toxicity in human cell lines; type: cell-based; settings: up to concentrations of 200 µM; HEK293 (renal embryonic origin)
[4] = tested on: keratinocytes HaCat; experiment: Cell toxicity in human cell lines; type: cell-based; settings: up to concentrations of 200 µM
[5] = read-out: Ki (GpNA), varying donor substrate GpNA, Gly-Gly fixed

GGT, sequence (A0A9L0SYL6 entry or part of it): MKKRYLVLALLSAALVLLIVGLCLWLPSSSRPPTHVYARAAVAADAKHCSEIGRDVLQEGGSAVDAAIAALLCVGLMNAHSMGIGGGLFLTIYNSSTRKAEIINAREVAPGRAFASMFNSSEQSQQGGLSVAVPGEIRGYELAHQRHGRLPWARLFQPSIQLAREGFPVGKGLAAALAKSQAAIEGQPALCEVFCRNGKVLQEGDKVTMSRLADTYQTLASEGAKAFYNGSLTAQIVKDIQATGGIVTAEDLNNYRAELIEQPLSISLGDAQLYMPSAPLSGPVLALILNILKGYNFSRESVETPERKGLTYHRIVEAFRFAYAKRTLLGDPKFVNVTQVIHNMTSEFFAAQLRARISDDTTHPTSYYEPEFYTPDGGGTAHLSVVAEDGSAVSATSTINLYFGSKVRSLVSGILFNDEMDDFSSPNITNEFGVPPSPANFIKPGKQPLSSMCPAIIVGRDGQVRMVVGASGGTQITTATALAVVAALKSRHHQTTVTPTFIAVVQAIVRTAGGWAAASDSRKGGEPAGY
EqGGT, sequence (A0A9L0SYL6 entry or part of it): as above

Row | Compound | type of inhibition [1] | Ki [1, 5] [µM] | IC50 ([2]; concentration inducing 50% inhibition of GGT activity, 1 mM GpNA, 40 mM glycyl-glycine, ovothiol A and 5-thio as disulfide) [µM] | Ki ([1]; varying acceptor substrate Gly-Gly, GpNA fixed, read-out: Ki (gly-gly)) [µM] | Ki ([1]; varying donor substrate GpNA, Gly-Gly fixed, read-out: Ki (GpNA)) [µM] | cell toxicity [3] | IC50 ([2]; concentration inducing 50% inhibition of GGT activity, 1 mM GpNA, 40 mM glycyl-glycine, ovothiol A and 5-thio as disulfide, read-out: IC50) [µM] | times more active than Erg and DON in inhibiting GGT activity ([2]; disulfide forms) | cell toxicity [4] | Ki ([1]; read-out: Ki (gly-gly), varying acceptor substrate Gly-Gly, GpNA fixed) [µM] | IC50 [2] [µM]
1 | C[N+](C)(C)C(Cc1cnc(S)[nH]1)C(=O)[O-] (stereo not drawn) [Erg, N-alpha-trimethyl-2-thiohistidine, reference compound] | non-competitive inhibitors | 229 ± 53.9 | 277 | – | – | – | – | – | – | – | –
2 | NC(Cc1[nH]cnc1SSc1nc[nH]c1CC(N)C(=O)O)C(=O)O (stereo not shown) | non-competitive inhibitors | – | – | 17.4 ± 6.1 | 6.9 ± 2.91 | no cell toxicity | 13 | 10-20 times | no cell toxicity | – | –
3 | [N-]=[N+]=CC(=O)CC[C@H](N)C(=O)O [DON, 6-diazo-5-oxo norleucine, reference compound] | – | 156 ± 15.3 | – | – | – | – | – | – | – | 200 ± 62.7 | 250
